Assay results taken from US6441205B1, “Synthetic precursors to 4-(P-methoxyphenyl)-2-amino-butane” (Council of Scientific and Industrial Research, priority 2000, dated 2002).
Like-named read-outs stand apart in the source and are kept apart here.

Key:
[1] = system: 4th instar larvae of Spilarctia obliqua; test: growth inhibition bioassay, diet-mix method; type: in vivo, Spilarctia obliqua (Bihar hairy caterpillar); conditions: bioassay studies
Protocol: (§1) The compound having formula (1) was evaluated as feeding deterrent and growth inhibitor against 4th in star larvae of spilarctia obliqua (Bihar hairy caterpillar). This insect attacks more than twenty cash crops like urd, moong, arhar, mint and coleus etc. Several synthetic insecticides like quinalphos, Phosphamidon and synthetic pyrethroids are commercially used to manage this insect pest. But, the insect is developing resistance towards some of these insecticides. Therefore, it has now become imperative to search for new ecologically safe, environmentally sound and non-toxic chemicals to manage this pest.
With compound having formula (1) insect feeding deterrency and growth inhibition was tested by diet-mix method. In this method, 4-(p-methoxyphenyl)-2-aminobutane the compound having formula (1) was dissolved in acetone to make various concentrations ranging from 1000 to 5000 ppm. Test solution was mixed in the artificial diet of the insect so that each gram of diet contained 60-300 μg of the compound (1). 4th in star larva (newly molted) starved four hours, was weighed and released on treated artificial diet in thirty replications. […] After 24 hours, number of fecal pellets produced were counted, and the data were analyzed for % feeding deterrency. […] After 3 days, experiment was discontinued and weight gain or loss was analyzed for % growth inhibition. […]

[2] = system: 4th instar larvae of Spilarctia obliqua; test: feeding deterrency (antifeedant) bioassay, diet-mix method; type: in vivo, Spilarctia obliqua (Bihar hairy caterpillar); conditions: for antifeedant activity (in words): bioassay studies; for % feeding deterrency: diet-mix, fecal pellets after 24 hours
Protocol: as §1
With compound having formula (1) insect feeding deterrency and growth inhibition was tested by diet-mix method. In this method, 4-(p-methoxyphenyl)-2-aminobutane the compound having formula (1) was dissolved in acetone to make various concentrations ranging from 1000 to 5000 ppm. Test solution was mixed in the artificial diet of the insect so that each gram of diet contained 60-300 μg of the compound (1). 4th in star larva (newly molted) starved four hours, was weighed and released on treated artificial diet in thirty replications. In control, only solvent acetone was mixed and azadirachtin at 1000 ppm concentration was taken as standard for feeding bioassay. After 24 hours, number of fecal pellets produced were counted, and the data were analyzed for % feeding deterrency. Some experiments were continued for next 24 hours and weights of the larva were taken daily. After 3 days, experiment was discontinued and weight gain or loss was analyzed for % growth inhibition.
Diflubenzuron at 5 ppm was taken as a standard in case of growth inhibitory assay. The test result of compound having formula (1) in terms of its feeding deterrency and growth inhibition as compared to standards azadirachtin and diflubenzuron are given in table 1.

[3] = exposure to sun light; cited from earlier work
[4] = sensitivity to light (UV and sunlight); type: physicochemical; conditions: both UV and sunlight

Compound	growth inhibition activity (in words) [1]	antifeedant activity (in words) [2]	sensitivity to light [3]	% feeding deterrency ([2]; 1000 ppm)	sensitivity to light [4]	% feeding deterrency ([2]; 2000 ppm)	% feeding deterrency ([2]; 3000 ppm)	% feeding deterrency ([2]; 4000 ppm)	% feeding deterrency ([2]; 5000 ppm)
CC(O)CCc1ccc(O)cc1 (stereo not drawn) [compound (2), 4-(p-hydroxyphenyl)-butan-2-ol]	not found to be active	not found to be active	–	–	–	–	–	–	–
C/C=C(\C)C(=O)O[C@H]1C[C@@H](OC(C)=O)[C@@]2(C(=O)OC)CO[C@H]3[C@@H](O)[C@@](C)([C@]45O[C@@]4(C)[C@H]4C[C@@H]5O[C@@H]5OC=C[C@@]54O)[C@H]4[C@]1(CO[C@]4(O)C(=O)OC)[C@@H]32 [Azadirachtin, reference compound]	–	–	photosensitive	100.0%	–	–	–	–	–
COc1ccc(CCC(C)N)cc1 (stereo not drawn) [Compound 1, 4-(p-methoxyphenyl)-2-amino butane]	significant activity	significant activity	–	32.0%	not sensitive to light	40.0%	64.0%	82.0%	100.0%
